Source: ChEMBL document CHEMBL5321222, “N(14)-substituted evodiamine derivatives as dual topoisomerase 1/tubulin-Inhibiting anti-gastrointestinal tumor agents” (Eur J Med Chem, 2023)
Active and inactive are the calls of the source. The rule behind the calls is not given here.

Experiments:
SW480 = assay: Antiproliferative activity against human SW480 cells assessed as reduction in cell viability incubated for 72 hrs by MTT assay; format: functional, cell-based; conditions: SW480, 72 h
LoVo = assay: Antiproliferative activity against human LoVo cells assessed as reduction in cell viability incubated for 72 hrs by MTT assay; format: functional, cell-based
RKO [1] = assay: Antiproliferative activity against human RKO cells assessed as reduction in cell viability incubated for 72 hrs by MTT assay; format: functional, cell-based
HGC-27 = assay: Antiproliferative activity against human HGC-27 cells assessed as reduction in cell viability incubated for 72 hrs by MTT assay; format: functional, cell-based; conditions: HGC-27, 72 h
SGC-7901 = assay: Antiproliferative activity against human SGC-7901 cells assessed as reduction in cell viability incubated for 72 hrs by MTT assay; format: functional, cell-based; conditions: SGC-7901, 72 h
MGC-803 [2] = assay: Antiproliferative activity against human MGC-803 cells assessed as reduction in cell viability incubated for 72 hrs by MTT assay; format: functional, cell-based; conditions: MGC-803, 72 h
GES1 = assay: Antiproliferative activity against human GES1 cells assessed as reduction in cell viability incubated for 72 hrs by MTT assay; format: functional, cell-based; conditions: GES1, 72 h
[3] = biological target: T1, DNA topoisomerase 1 (Homo sapiens) (UniProt P11387); assay: Inhibition of topoisomerase 1 (unknown origin) at 200 uM using PBR322 DNA as substrate incubated for 30 mins by agarose gel electrophoresis
T1 sequence (whole entry): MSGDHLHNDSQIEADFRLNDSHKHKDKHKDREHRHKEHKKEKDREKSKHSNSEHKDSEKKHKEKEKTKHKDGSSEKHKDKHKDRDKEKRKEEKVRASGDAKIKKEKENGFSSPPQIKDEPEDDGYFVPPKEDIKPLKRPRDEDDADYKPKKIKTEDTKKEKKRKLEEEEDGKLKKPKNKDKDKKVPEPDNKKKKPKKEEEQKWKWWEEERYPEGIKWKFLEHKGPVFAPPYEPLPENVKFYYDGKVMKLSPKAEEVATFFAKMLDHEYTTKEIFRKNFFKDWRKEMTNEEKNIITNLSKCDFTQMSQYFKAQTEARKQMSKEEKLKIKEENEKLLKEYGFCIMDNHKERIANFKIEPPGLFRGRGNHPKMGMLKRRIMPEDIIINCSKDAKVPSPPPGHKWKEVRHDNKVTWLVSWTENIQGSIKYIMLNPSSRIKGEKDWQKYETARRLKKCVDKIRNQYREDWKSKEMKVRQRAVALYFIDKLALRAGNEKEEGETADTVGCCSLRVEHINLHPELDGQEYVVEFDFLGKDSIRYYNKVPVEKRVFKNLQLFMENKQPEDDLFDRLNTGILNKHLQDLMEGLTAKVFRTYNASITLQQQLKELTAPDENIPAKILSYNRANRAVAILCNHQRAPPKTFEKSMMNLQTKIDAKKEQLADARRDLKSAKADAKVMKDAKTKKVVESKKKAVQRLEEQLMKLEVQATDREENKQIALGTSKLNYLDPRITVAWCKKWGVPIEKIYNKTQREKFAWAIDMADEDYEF

MGC-803 [4] = assay: Inhibition of cell […] in human MGC-803 cells at 50 nM incubated for 24 hrs by scratch wound healing assay; format: functional, cell-based
RKO [5] = assay: Inhibition of cell migration in human RKO cells assessed as reduction in tumor wound healing incubated for 24 hrs by microscopic analysis; format: functional, cell-based; conditions: dose 10-90 nM
MGC-803 [6] = assay: Induction of apoptosis in human MGC-803 cells assessed as late apoptotic cells at 0.2 uM incubated for 24 hrs by propidium iodide and Annexin V/FITC staining based flow cytometry assay (reference value: 4.10%); format: functional
MGC-803 [7] = assay: Induction of cell cycle arrest in human MGC-803 cells assessed as accumulation of cells at G2/M phase at 0.2 uM incubated for 24 hrs by propidium iodide staining based flow cytometry analysis; format: functional
RKO [8] = assay: Induction of cell cycle arrest in human RKO cells assessed as accumulation of cells at G2/M phase at 0.2 uM incubated for 24 hrs by propidium iodide staining based flow cytometry analysis; format: functional
RKO [9] = assay: Induction of cell cycle arrest in human RKO cells assessed as accumulation of cells at S phase at 0.2 uM incubated for 24 hrs by propidium iodide staining based flow cytometry analysis; format: functional
MGC-803 [10] = assay: Induction of apoptosis in human MGC-803 cells assessed as early apoptotic cells at 0.2 uM incubated for 24 hrs by propidium iodide and Annexin V/FITC staining based flow cytometry assay (reference value: 1.85%); format: functional
RKO [11] = assay: Induction of apoptosis in human RKO cells assessed as early apoptotic cells at 0.2 uM incubated for 24 hrs by propidium iodide and Annexin V/FITC staining based flow cytometry assay (reference value: 0.16%); format: functional
RKO [12] = assay: Induction of apoptosis in human RKO cells assessed as late apoptotic cells at 0.2 uM incubated for 24 hrs by propidium iodide and Annexin V/FITC staining based flow cytometry assay (reference value: 0.50%); format: functional
MGC-803 [13] = assay: Induction of morphological changes in human MGC-803 cells at 0.2 uM incubated for 24 hrs by Giemsa staining based micrscopic analysis; format: functional, cell-based
RKO [14] = assay: Induction of morphological changes in human RKO cells at 0.2 uM incubated for 24 hrs by Giemsa staining based micrscopic analysis; format: functional, cell-based
MGC-803 [15] = assay: Antiproliferative activity against human MGC-803 cells assessed as reduction in cell viability at 90 nM incubated for 24 hrs by BrdU staining based fluorescence microscopic analysis; format: functional
RKO [16] = assay: Antiproliferative activity against human RKO cells assessed as reduction in cell viability at 90 nM incubated for 24 hrs by BrdU staining based fluorescence microscopic analysis; format: functional

For `O=C1c2ccccc2N(Cc2ccccc2)C2c3[nH]c4ccccc4c3CCN12` (stereo unspecified), the IC50 (SW480) was 13.3 µM, the IC50 (LoVo) was over 30 µM and the IC50 (RKO [1]) was 5.96 µM. It also gave an IC50 (HGC-27) of 10.7 µM, an IC50 (SGC-7901) of 11.6 µM and an IC50 (MGC-803 [2]) of 9.34 µM. The IC50 (GES1) was 15.9 µM.
Compound `CCN1c2ccccc2C(=O)N2CCc3c([nH]c4ccccc34)C21` (stereo unspecified) has an IC50 (SW480) of 0.98 µM, an IC50 (LoVo) of 1.2 µM and an IC50 (RKO [1]) of 0.41 µM. For the same compound, the IC50 (HGC-27) was 2.15 µM, the IC50 (SGC-7901) was 0.43 µM and the IC50 (MGC-803 [2]) was 0.17 µM. For the same compound, the IC50 (GES1) was 0.3 µM and the inhibition [3] was “Active”.
`Cc1ccc(CN2c3ccccc3C(=O)N3CCc4c([nH]c5ccccc45)C32)cc1` (stereo unspecified) was tested, and the IC50 (SW480) was over 30 µM, the IC50 (LoVo) was over 30 µM and the IC50 (RKO [1]) was 12.5 µM. It also gave an IC50 (HGC-27) of over 30 µM, an IC50 (SGC-7901) of 6.11 µM and an IC50 (MGC-803 [2]) of 7.06 µM. For the same compound, the IC50 (GES1) was 9.74 µM.
Work on `C[Si](C)(C)CN1c2ccccc2C(=O)N2CCc3c([nH]c4ccccc34)C21` (stereo unspecified) yielded an IC50 (SW480) of 3.28 µM, an IC50 (LoVo) of 7.06 µM and an IC50 (RKO [1]) of 2.21 µM. It also gave an IC50 (HGC-27) of over 3 µM, an IC50 (SGC-7901) of 2.47 µM and an IC50 (MGC-803 [2]) of 1.78 µM. For the same compound, the IC50 (GES1) was 4.24 µM.
`C=CCN1c2ccccc2C(=O)N2CCc3c([nH]c4ccccc34)C21` (stereo unspecified) was tested, and the IC50 (SW480) was 0.38 µM, the IC50 (LoVo) was 1 µM and the IC50 (RKO [1]) was 0.38 µM. For the same compound, the IC50 (HGC-27) was 1.05 µM, the IC50 (SGC-7901) was 0.27 µM and the IC50 (MGC-803 [2]) was 0.06 µM. For the same compound, the inhibition [3] was “Active”.
For `CC[C@@]1(O)C(=O)OCc2c1cc1n(c2=O)Cc2cc3c(CN(C)C)c(O)ccc3nc2-1` [TOPOTECAN], the inhibition (MGC-803 [4]) was “inactive”, the inhibition (RKO [5]) was “inactive” and the IC50 (SW480) was 0.09 µM. It also gave an IC50 (LoVo) of 0.12 µM, an IC50 (RKO [1]) of 0.42 µM and an IC50 (HGC-27) of 0.49 µM. It also gave an IC50 (SGC-7901) of 0.69 µM, an IC50 (MGC-803 [2]) of 0.42 µM and an IC50 (GES1) of 1.06 µM. For the same compound, the Activity (MGC-803 [6]) was 3.67%, the Activity (MGC-803 [7]) was 82.29% and the Activity (RKO [8]) was 31.92%. For the same compound, the Activity (RKO [9]) was 67.69%, the Activity (MGC-803 [10]) was 5.11% and the Activity (RKO [11]) was 14.2%. For the same compound, the Activity (RKO [12]) was 19.28%, the Activity (MGC-803 [13]) was “inactive” and the Activity (RKO [14]) was “inactive”. The inhibition [3] was “Active”.
`COc1ccc(CCN2c3ccccc3C(=O)N3CCc4c([nH]c5ccccc45)C32)cc1OC` (stereo unspecified) was tested, and the IC50 (SW480) was over 30 µM, the IC50 (LoVo) was over 30 µM and the IC50 (RKO [1]) was over 30 µM. It also gave an IC50 (HGC-27) of over 30 µM, an IC50 (SGC-7901) of over 30 µM and an IC50 (MGC-803 [2]) of over 30 µM. For the same compound, the IC50 (GES1) was over 30 µM.
`CC(C)N1c2ccccc2C(=O)N2CCc3c([nH]c4ccccc34)C21` (stereo unspecified) gave an IC50 (SW480) of 1.17 µM, an IC50 (LoVo) of 0.54 µM and an IC50 (RKO [1]) of 0.49 µM. It also gave an IC50 (HGC-27) of 2.27 µM, an IC50 (SGC-7901) of 0.38 µM and an IC50 (MGC-803 [2]) of 0.13 µM. For the same compound, the IC50 (GES1) was 0.9 µM.
`COc1cc2c(c(OC)c1OC)-c1ccc(OC)c(=O)cc1[C@@H](NC(C)=O)CC2` [COLCHICINE] was tested, and the IC50 (LoVo) was 0.23 µM, the IC50 (SGC-7901) was 17.3 µM and the IC50 (MGC-803 [2]) was 7.99 µM. For the same compound, the Activity (MGC-803 [15]) was “Active”, the Activity (RKO [16]) was “Active” and the Activity (MGC-803 [6]) was 7.63%. It also gave an Activity (RKO [8]) of 82.29%, an Activity (MGC-803 [10]) of 6.95% and an Activity (RKO [11]) of 5.3%. The Activity (RKO [12]) was 5.1%, the Activity (MGC-803 [13]) was “Active” and the Activity (RKO [14]) was “Active”.
`CC(C)(C)CN1c2ccccc2C(=O)N2CCc3c([nH]c4ccccc34)C21` (stereo unspecified) gave an IC50 (SW480) of 1.84 µM, an IC50 (LoVo) of 1.95 µM and an IC50 (RKO [1]) of 1.31 µM. The IC50 (HGC-27) was over 3 µM, the IC50 (SGC-7901) was 1.21 µM and the IC50 (MGC-803 [2]) was 0.91 µM. It also gave an IC50 (GES1) of 1.68 µM.
`CC(C)CN1c2ccccc2C(=O)N2CCc3c([nH]c4ccccc34)C21` (stereo unspecified) gave an IC50 (SW480) of 2.2 µM, an IC50 (LoVo) of 0.5 µM and an IC50 (RKO [1]) of 0.88 µM. It also gave an IC50 (HGC-27) of 1.95 µM, an IC50 (SGC-7901) of 0.35 µM and an IC50 (MGC-803 [2]) of 0.16 µM. For the same compound, the IC50 (GES1) was 1.08 µM and the inhibition [3] was “Active”.
